Data: patent US10441681B2, “Materials and methods for nerve grafting” (University of Florida Research Foundation, Inc., priority 2001, dated 2019)

Columns and labels:
[1] = test system: embryonic chick DRG neurons; assay: Cryoculture bioassay (neurite outgrowth) on sections of acellular rat nerve segments; type: cell-based
Protocol: Cryoculture is a neurite outgrowth assay in which neurons are cultured directly on fresh/frozen nerve sections and was performed as described previously (Ferguson T A et al. [2000] Mol Cell Neurosci, 16:157-167). Briefly, chondroitinase- and vehicle-treated nerve segments were sectioned at 20 μm, mounted on sterile, aminopropyltriethoxysilane (APTS)-coated coverslips and stored at −20° C. until used. Where indicated, sections were treated with chondroitinase ABC (0.1 unit/ml) or vehicle (50 mM Tris-HCl, pH 8.0), containing 50 mM NaCl) for 2 h at 37° C. Purified dorsal root ganglionic (DRG) neurons from day 8 chick embryos were seeded directly on the nerve sections in a defined N2 medium (Bottenstein J E et al. [1980] Exp Cell Res 125:183-190) containing 10 ng/ml nerve growth factor. Cryoculture assays were terminated after 24 h of incubation by fixation with 100% methanol. Neuritic growth by DRG neurons was accessed by GAP-43 immunofluorescent labeling. Epifluorescent photomicrographs were acquired as described for tissue sections. Neurite lengths were measured directly using IMAGE-PRO PLUS software (MEDIA CYBERNETICS, Silver Springs, Md.). At least 250 neurons with neurites greater than one cell body (˜15 μm) were scored for each condition in each experiment.
Inactivation of inhibitory CSPG in chondroitinase-treated acellular nerve was determined by cryoculture bioassay. Embryonic chick DRG neurons were seeded onto sections of prepared nerve segments and the neurite-promoting activity was assessed by scoring neurite growth. On sections of acellular nerve pretreated en bloc with vehicle only the average neurite length was 49 μm. Neurite growth on acellular nerve pretreated en bloc with chondroitinase averaged 96 μm, representing a 95% increase compared to the control condition. To determine if the en bloc chondroitinase treatment was thorough, cryoculture assays were performed on nerve tissues treated with chondroitinase after sectioning (post-treatment).

rat sciatic nerve = assay: Axonal regeneration after bilateral sciatic nerve crush injury (axonotmesis); type: in vivo; details: two days after injury, 1 U in 2 μl injected, n=6
Protocol: All surgical procedures were performed according to Institutional Animal Care and Use Committee (IACUC) approved protocols. Young adult SPRAGUE DAWLEY rats (HARLAN Indianapolis, Ind.) were deeply anesthetized with xylazine (15 mg/kg, i.m.) followed by ketamine-HCl (110 mg/kg, i.p.). Six animals received bilateral nerve crush injuries. Sciatic nerves were exposed and then crushed with firm pressure for thirty seconds with a DUMONT #5 forceps at a site 4 mm distal to the tendon of the internal obdurator. The crush site was marked with an epineurial suture. In a separate set of experiments, eight rats received bilateral sciatic nerve transection injuries using serrated scissors. The proximal and distal stumps were […] by epineurial neurorrhaphy using 9-0 ETHILON sutures. Fibrin glue (fibrinogen and thrombin) was then applied to stabilize the union. In both injury models, the right sciatic nerves were injected 2-mm distal to the injury with chondroitinase ABC (1 U in 2 μl) (high-purity, protease-free; SIGMA CHEMICAL CO., St. Louis, Miss.). Left sciatic nerves (with the same injury as the right side) were injected with vehicle alone (0.1% bovine serum albumin in PBS). […]
The hypothesis that chondroitinase treatment improves axonal growth through the site of nerve crush injury was tested. […] Regenerating axons were labeled by GAP-43 immunofluorescence and scored by digital image analysis. […]

With chondroitinase ABC the “increase in neurite growth compared to the control condition” value ([1]; acellular nerve pretreated en bloc vs en bloc vehicle) was 95%, the average neurite length ([1]; acellular nerve pretreated en bloc, DRG neurons grown 24 h) was 96 μm and the “increase in neurite-promoting activity by post-treatment of sections” value ([1]; acellular nerve treated en bloc with vehicle only, sections post-treated with chondroitinase) was 86%. For the same substance, the “effect of post-treatment on sections from en bloc chondroitinase-treated nerve grafts” value ([1]; post-treatment after sectioning) was “only a slight additive effect”, the “axonal regeneration after nerve crush injury (GAP-43 immunoreactivity)” value (rat sciatic nerve) was “no significant difference” and the “axonal regeneration after nerve crush injury (GAP-43 immunoreactivity)” value (rat sciatic nerve; listed as chondroitinase) was “not significantly effected”.
